This note sets out measurements from ChEMBL document CHEMBL4825699, “Metabolic and conformational stabilization of a VEGF-mimetic beta-hairpin peptide by click-chemistry” (Eur J Med Chem, 2021).

Calls of active or inactive are those of the source. No cut-off for these calls is given here.

For series [1], the system named is HUVEC. As to the kind of experiment: Cytotoxicity against human HUVEC assessed as reduction in cell viability at 50 nM measured after 48 hrs by CyQuant NF Cell Proliferation assay. It is filed as cell-based. As to conditions: 0.05 µM.
The subject of series [2] is HUVEC. The experiment in a line: Binding affinity to VEGFR in human HUVEC assessed as induction of cell proliferation measured after 24 to 48 hrs by CyQuant NF Cell Proliferation assay. As to conditions: dose 25-50 nM, time 24-48 hrs.
The test system of series [3] is HUVEC. As to the kind of experiment: Binding affinity to VEGFR in human HUVEC assessed as induction of cell proliferation at 25 to 50 nM measured after 48 hrs by CyQuant NF Cell Proliferation assay relative to control. As to conditions: dose 25-50 nM.
Series [4] has as its system HUVEC. The experiment in a line: Binding affinity to VEGFR in human HUVEC assessed as induction of cell proliferation at 50 nM measured after 48 hrs in presence of 250 nM VEGFR1D2 by CyQuant NF Cell Proliferation assay.
Series [5] has as its system HUVEC. The experiment in a line: Pro-angiogenic activity in human HUVEC assessed as organization into capillary network formation by measuring increase in branch points number counting at 50 nM measured after 6 hrs by inverted microscopy relative to HPLW. It is filed as functional.
Series [6] can be described thus: Metabolic stability of the compound in 50% human serum incubated for 120 mins by RP-HPLC analysis. Type of series: ADME, cell-free. As to conditions: read-out: Stabilty.
The test system of series [7] is HUVEC. As to the kind of experiment: Binding affinity to VEGFR in human HUVEC assessed as induction of cell proliferation at 25 to 50 nM measured after 48 hrs by CyQuant NF Cell Proliferation assay relative to HPLW. As to conditions: dose 25-50 nM.
Series [8] has as its system HUVEC. As to the kind of experiment: Binding affinity to VEGFR in human HUVEC assessed as induction of cell proliferation at 25 to 50 nM measured after 48 hrs by CyQuant NF Cell Proliferation assay relative to Ac-HPLW-NH2. As to conditions: dose 25-50 nM.
In series [9] the test system is HUVEC. As to the kind of experiment: Pro-angiogenic activity in human HUVEC assessed as organization into capillary network formation by measuring increase in branch points number counting at 50 nM measured after 6 hrs by inverted microscopy relative to Ac-HPLW-NH2. Type of series: functional.
A short description of series [10]: Metabolic stability of the compound in 50% human serum assessed as half life by RP-HPLC analysis. It is filed as ADME, cell-free.
The nature of series [11]: Metabolic stability of the compound in 50% human serum assessed as drug degradation incubated for 120 mins by RP-HPLC analysis. Type of series: ADME, cell-free. As to conditions: read-out: Drug degradation.

Regarding `CC[C@H](C)[C@@H]1NC(=O)[C@@H](NC(=O)[C@H](CC(C)C)NC(=O)[C@H](CC(C)C)NC(=O)[C@H](CCC(N)=O)NC(=O)[C@H](CCCCN)NC(C)=O)CCCc2cn(nn2)CCC[C@@H](C(=O)N[C@@H](Cc2ccc(O)cc2)C(=O)N[C@@H](Cc2c[nH]c3ccccc23)C(=O)N[C@H](C(=O)N[C@@H](CO)C(N)=O)[C@@H](C)O)NC(=O)[C@@H]2CCCN2C(=O)[C@H](CCCNC(=N)N)NC(=O)[C@H](CC(=O)O)NC(=O)CNC(=O)[C@H](CO)NC(=O)[C@H](CCCNC(=N)N)NC1=O`, the Activity entry with HUVEC [1] is “Non-Toxic”; in the series with HUVEC [2], “Toxic”; in the series on HUVEC [3], 92%; with HUVEC [5] it was 13%; with HUVEC [7] it was 37%; in the series on HUVEC [8], 30%. Also, the Activity with HUVEC [9] was found to be 28%. Moreover, the result in the series on HUVEC [4] was inactive. The remaining at 2 h in [6] was determined as 100%.
In general, half-life refers to how long it takes for the measured level to halve. For H-KQLLWIRSGDRPWYYTS-OH, the half-life in [10] amounted to 25 min. The values for the Activity result with HUVEC [1] and with HUVEC [2] were “Non-Toxic” and “Dose-Dependent Effect”, respectively. For the same molecule, the result with HUVEC [4] was inactive. In [11], the metabolised at 2 h is 100%.
The like results for Ac-KQLLWIRSGDRPWYYTS-NH2 were, in that order, 25 min, “Non-Toxic”, “Dose-Dependent Effect”, “inactive” and 100%.
